Source: BindingDB's records for doi:10.1021/jm800180e (Schering-Plough Research Institute, 2008)

What was measured:
[1] = Antagonist activity at PAR1 in human platelets assessed as inhibition of thrombin-induced platelet aggregation
[2] = Antagonist activity at PAR1 in human platelets assessed as inhibition of haTRAP-induced platelet aggregation

Q: For `CCOC(=O)N[C@@H]1CC[C@@H]2[C@@H](C1)C[C@H]1C(=O)O[C@H](C)[C@H]1[C@H]2C=Cc1ccc(-c2cccc(F)c2)cn1` [Ethyl [(3aR,4aR,8aR,9aS)-9(S)-[(E)-2-[5-(3-fluorophenyl)-2-pyridinyl]ethenyl]dodecahydro-1(R)-methyl-3-oxonaphtho[2,3-c]furan-6(R)-yl]carbamate], which IC50 [1] is on record?
A: Its IC50 is 47 nM.

Q: What about the IC50 [2] of the same molecule?
A: Its IC50 is 25 nM.
